Experimental data: publication PMC5083757, “Effect of veliparib (ABT-888) on cardiac repolarization in patients with advanced solid tumors: a randomized, placebo-controlled crossover study” (Cancer Chemotherapy and Pharmacology, 2016)
Like-named read-outs stand apart in the source and are kept apart here. Marks after values point to notes of the source that are not given here.

Columns and labels:
[1] = Pharmacokinetic assessment of veliparib plasma concentrations after a single oral dose; assay type: in vivo, human; settings: for half-life / AUC(0-inf) / Vd/F / AUC(0-t) / Cmax / Tmax: human, plasma; for Vd/F: read-out: VZ/F
Method: (§1) Following screening, on the morning of day 1 of each period, eligible patients received a single dose of veliparib 200 mg, veliparib 400 mg, or placebo according to the treatment sequence assigned at randomization, administered orally between 8.00 and 10.00 AM, and approximately 30 min after the start of a low-fat breakfast. Each treatment period lasted 3–7 days, allowing for ≥3 days of drug washout between periods. After study completion, patients were permitted to enter an extension study (NCT02033551) to assess the safety of veliparib as monotherapy or in combination with chemotherapy.
In each period, blood samples were collected for pharmacokinetic analysis at 0 h (pre-dose), and at 0.5, 1, 2, 3, 10, and 24 h post-dose. Plasma concentrations of veliparib were determined using a validated online solid-phase extraction followed by liquid chromatography with tandem mass spectrometric detection with a lower limit of quantitation for veliparib of 1.05 ng/mL. Veliparib pharmacokinetic parameters were estimated using non-compartmental methods.

[2] = tested on: dogs; settings: preclinical studies in dogs; cited from earlier work
[3] = tested on: patients with advanced solid tumors; experiment: Safety: treatment-emergent adverse events; assay type: in vivo, human; settings: for TEAE: AE leading to discontinuation / TEAE: Abdominal pain / TEAE: Any AE / TEAE: Any fatal AE / TEAE: Any serious AE / TEAE: Back pain / TEAE: Constipation / TEAE: Decreased appetite / TEAE: Dehydration / TEAE: Diarrhea / TEAE: Dizziness / TEAE: Dysgeusia / TEAE: Fatigue / TEAE: Hypomagnesemia / TEAE: Myalgia / TEAE: NCI CTCAE grade 3 or 4 / TEAE: Nausea / TEAE: Neck pain / TEAE: Vomiting: N = 47; for TEAE: At least possibly related to study drug: N = 47, as assessed by investigator; for Deaths: N = 47, includes non-treatment-emergent deaths
Method: Safety was evaluated by AE monitoring, vital signs, physical examination, and laboratory testing throughout the study. Treatment-emergent AEs (TEAEs) were recorded from the time of first dose of study drug until 30 days from the last day of dosing or discontinuation, or until the first dose of study drug for patients enrolling in the NCT02033551 extension study. TEAEs were classified by Medical Dictionary for Regulatory Activities version 17.0 system organ class and preferred term. The severity of AEs was rated according to the National Cancer Institute Common Terminology Criteria for Adverse Events version 4.0. The safety population consisted of all patients’ data.

[4] = tested on: patients with advanced solid tumors; experiment: ECG assessment of QTcF interval, single-dose placebo-controlled crossover study; assay type: in vivo, human
Source text: This was a multicenter phase 1, single-dose, double-blind, placebo-controlled, randomized, 3-period, 6-sequence crossover study (NCT02009631). The primary objective was to evaluate the effect of veliparib on corrected QT interval using Fridericia’s formula (QTcF) in patients with solid tumors. Secondary objectives were to assess the pharmacokinetics, safety, and tolerability of single-dose veliparib.
as §1
Serial, resting 12-lead ECG measurements were performed at screening, on day 1 of each period at 0 h (pre-dose), and at 0.5, 1, 2, 3, 10, and 24 h post-dose, and at the final study visit on day 3 of period 3. ECGs were performed in triplicate except for a single ECG at screening. All ECG tracings were evaluated using the automated signal analysis algorithm of eECG/ABBIOS to measure predefined ECG intervals (RR, PR, QT, and QRS duration). All ECGs were manually verified and adjudicated by an expert over-reader who was blinded to treatment, time, and patient identification. T- and U-wave morphologies were independently reviewed by a qualified cardiologist who was similarly blinded to treatment, time, and patient identification. QTcF was determined as follows: QTCF=QT/RR3
A linear mixed effects model was used for the analysis of baseline-adjusted QTcF intervals (∆QTcF) for the first 24 h after dosing with either placebo, veliparib 200 mg, or veliparib 400 mg. The primary endpoint was the baseline-adjusted difference in mean QTcF between the veliparib 400 mg dose and placebo (∆∆QTcF) at six post-dose time points. Absence of QTcF effect was established if the 95 % upper confidence bound for the mean ∆∆QTcF between veliparib 400 mg and placebo was below the 10 ms threshold of clinical significance for all post-dose time points, in accordance with ICH E14 guidelines. For the QT/QTc, PR, and QRS interval variables, appropriate cutoff points defining the categories of the largest change from baseline were determined. For QTc, the cutoff points for these categories were as specified in the ICH E14 guidelines. The dataset for ECG evaluations included all available patients’ data.

[5] = tested on: patients with advanced solid tumors; experiment: Exposure-response model (veliparib plasma concentration vs ∆∆QTcF); assay type: in vivo, human; settings: linear mixed effects model
Method: To establish the nonsignificance of a hysteresis effect, the criteria discussed in Darpo et al. were applied. Subsequently, linear mixed effects models were tested, with or without an additional lagged effect compartment, depending on the outcome of the test for hysteresis. A final model was chosen based on goodness of fit, plausibility of the parameters, and Bayesian information criterion (BIC). The relationship between ∆∆QTcF and veliparib concentration was modeled using the following equation: ΔΔQTcFi,j=ηi(2)+(Slope0+ηi(1))×Concentrationi,j+εi,j for subject i and time point j. η ^(2) represents the inter-subject variability on intercept (fixed effect on intercept is set to zero). Slope0 represents fixed effect on slope. η ^(1) represents the inter-subject variability of the Slope. ε i,j is the residual variability in subject i at time j.

[6] = tested on: patients with BRCA1/2-mutated or wild-type tumors; design: method as in earlier work; settings: cited from earlier work
[7] = 200 mg single oral dose, N = 46, mean ± SD
[8] = 400 mg single oral dose, N = 46, mean ± SD
[9] = 200 mg single oral dose, N = 47, mean ± SD
[10] = any of the three regimens (200 mg, 400 mg, placebo)
[11] = veliparib 200 mg single oral dose vs placebo
[12] = veliparib 400 mg single oral dose vs placebo

C[C@]1(c2nc3c(C(N)=O)cccc3[nH]2)CCCN1 [Veliparib]
AUC∞/dose [1, 7]: 59.9 ± 19.9^b (ng h/mL)/mg | CL/F [1, 7]: 18.2 ± 5.09^b L/h | Cmax/dose [1, 7]: 6.62 ± 1.89^b (ng/mL)/mg | AUC∞/dose [1, 8]: 63.8 ± 20.9 (ng h/mL)/mg | CL/F [1, 8]: 17.3 ± 5.27 L/h | Cmax/dose [1, 8]: 6.51 ± 2.12 (ng/mL)/mg | half-life ([1]; oral, similar for the 200 mg and 400 mg dose groups, read-out: terminal phase elimination half-life (t1/2) (converted)): ~5.5 h | half-life ([1]; 200 mg single oral dose, N = 46, harmonic mean ± pseudo SD, read-out: t1/2 (converted)): 5.3 ± 1.1 h | AUC(0-inf) [1, 7]: 12000 ± 3980 ng·h/mL | Vd/F [1, 7]: 141 ± 42.8 L | AUC(0-t) [1, 9]: 11100 ± 3120 ng·h/mL | Cmax [1, 9]: 1320 ± 378 ng/mL | Tmax [1, 9]: 2.4 ± 0.7 h | half-life ([1]; 400 mg single oral dose, N = 46, harmonic mean ± pseudo SD, read-out: t1/2 (converted)): 5.4 ± 1.3 h | AUC(0-inf) [1, 8]: 25500 ± 8370 ng·h/mL | AUC(0-t) [1, 8]: 23800 ± 7100 ng·h/mL | Cmax [1, 8]: 2610 ± 847 ng/mL | Tmax [1, 8]: 2.5 ± 0.6 h | Vd/F [1, 8]: 138 ± 48.4 L | mean time to Cmax (Tmax) ([1]; similar for the 200 mg and 400 mg dose groups): approximately 2.5 h | systemic exposure vs dose ([1]; single oral doses 200 mg and 400 mg): increased in a dose-proportional manner | effect on corrected QT (QTc) interval [2]: mild but concentration-dependent increase | TEAE: AE leading to discontinuation ([3]; 200 mg): 0 n (%) | TEAE: Abdominal pain ([3]; 200 mg): 2 (4.3) n (%) | TEAE: Any AE ([3]; 200 mg): 17 (36.2) n (%) | TEAE: Any fatal AE ([3]; 200 mg): 0 n (%) | TEAE: Any serious AE ([3]; 200 mg): 0 n (%) | TEAE: Back pain ([3]; 200 mg): 0 n (%) | TEAE: Constipation ([3]; 200 mg): 0 n (%) | TEAE: Decreased appetite ([3]; 200 mg): 0 n (%) | TEAE: Dehydration ([3]; 200 mg): 2 (4.3) n (%) | TEAE: Diarrhea ([3]; 200 mg): 1 (2.1) n (%) | TEAE: Dizziness ([3]; 200 mg): 0 n (%) | TEAE: Dysgeusia ([3]; 200 mg): 0 n (%) | TEAE: Fatigue ([3]; 200 mg): 2 (4.3) n (%) | TEAE: Hypomagnesemia ([3]; 200 mg): 0 n (%) | TEAE: Myalgia ([3]; 200 mg): 4 (8.5) n (%) | TEAE: NCI CTCAE grade 3 or 4 ([3]; 200 mg): 1 (2.1) n (%) | TEAE: Nausea ([3]; 200 mg): 6 (12.8) n (%) | TEAE: Neck pain ([3]; 200 mg): 0 n (%) | TEAE: Vomiting ([3]; 200 mg): 2 (4.3) n (%) | TEAE: At least possibly related to study drug ([3]; 200 mg): 7 (14.9) n (%) | Deaths ([3]; 200 mg): 0 n (%) | TEAE: AE leading to discontinuation ([3]; 400 mg): 1 (2.1) n (%) | TEAE: Abdominal pain ([3]; 400 mg): 2 (4.3) n (%) | TEAE: Any AE ([3]; 400 mg): 23 (48.9) n (%) | TEAE: Any fatal AE ([3]; 400 mg): 0 n (%) | TEAE: Any serious AE ([3]; 400 mg): 0 n (%) | TEAE: Back pain ([3]; 400 mg): 2 (4.3) n (%) | TEAE: Constipation ([3]; 400 mg): 1 (2.1) n (%) | TEAE: Decreased appetite ([3]; 400 mg): 1 (2.1) n (%) | TEAE: Dehydration ([3]; 400 mg): 0 n (%) | TEAE: Diarrhea ([3]; 400 mg): 3 (6.4) n (%) | TEAE: Dizziness ([3]; 400 mg): 3 (6.4) n (%) | TEAE: Dysgeusia ([3]; 400 mg): 2 (4.3) n (%) | TEAE: Fatigue ([3]; 400 mg): 3 (6.4) n (%) | TEAE: Hypomagnesemia ([3]; 400 mg): 0 n (%) | TEAE: Myalgia ([3]; 400 mg): 1 (2.1) n (%) | TEAE: NCI CTCAE grade 3 or 4 ([3]; 400 mg): 1 (2.1) n (%) | TEAE: Nausea ([3]; 400 mg): 4 (8.5) n (%) | TEAE: Neck pain ([3]; 400 mg): 2 (4.3) n (%) | TEAE: Vomiting ([3]; 400 mg): 4 (8.5) n (%) | TEAE: At least possibly related to study drug ([3]; 400 mg): 11 (23.4) n (%) | Deaths ([3]; 400 mg): 0 n (%) | TEAE myalgia ([3]; veliparib 200 mg): 8.5% | TEAE nausea ([3]; veliparib 200 mg): 12.8% | patients experiencing treatment-emergent adverse events ([3]; veliparib 200 mg): 36.2% | TEAE diarrhea ([3]; veliparib 400 mg): 6.4% | TEAE dizziness ([3]; veliparib 400 mg): 6.4% | TEAE fatigue ([3]; veliparib 400 mg): 6.4% | TEAE nausea ([3]; veliparib 400 mg): 8.5% | TEAE vomiting ([3]; veliparib 400 mg): 8.5% | patients experiencing treatment-emergent adverse events ([3]; veliparib 400 mg): 48.9% | patients with QTcF value greater than 480 ms [4, 10]: No patient | patients with change from baseline in QTcF interval greater than 30 ms [4, 10]: No patient | maximum 95 % upper confidence bound for mean ∆∆QTcF [4, 11]: 6.1 ms | maximum mean ∆∆QTcF [4, 11]: 3.6 ms | maximum 95 % upper confidence bound for mean ∆∆QTcF [4, 12]: 8.9 ms | maximum mean ∆∆QTcF [4, 12]: 6.4 ms | predicted mean ∆∆QTcF at geometric mean of Cmax ([5]; 200 mg dosing): 2.45 ms | predicted upper 95th percentile ∆∆QTcF at geometric mean of Cmax ([5]; 200 mg dosing): 3.28 ms | predicted mean ∆∆QTcF at geometric mean of Cmax ([5]; 400 mg dosing): 4.62 ms | predicted upper 95th percentile ∆∆QTcF at geometric mean of Cmax ([5]; 400 mg dosing): 6.19 ms | dose-limiting toxicities ([6]; at 400 mg twice daily, in patients with BRCA1/2-mutated and wild-type tumors, respectively): grade 3 nausea/vomiting and grade 2 seizure | maximum tolerated dose of single-agent veliparib ([6]; phase 1 study, patients with BRCA1/2-mutated or wild-type tumors): 400 mg twice daily
